Our source for the IC50 values is patent US20230219963A1, “PYRROLO[2,3-D]PYRIMIDINE DERIVATIVES” (Pfizer Inc., priority 2020, published 2023).

What all share (type): cell-based
One assay deals with IL-27 induced pSTAT3. In words: IL-27-induced pSTAT3 in human whole blood (lymphocytes). The conditions noted are these: Lymphocyte, JAK1/JAK2, read-out: IL-27 induced pSTAT3, cellular potency IC50. As to the method: (§1) Human whole blood was collected from healthy donors via vein puncture into Vacutainer collection tubes containing sodium heparin in accordance with Pfizer protocols (Protocol No. GOHW RDP-01) approved by the Shulman Institutional Review Board. Blood was warmed to 37° C. priorto use. Human whole blood was aliquoted (90 μL/well) in 96-well, deep-well, V-bottom plates and treated with compounds (5 μL/well) at different concentrations up to 60 μM (0.2% DMSO final) at 37° C. for 60 minutes. This was followed by a challenge with IFNα (5000 U/mL), IFNγ (100 ng/mL), IL-6 (50 ng/mL), IL-10 (30 ng/mL), IL-12 (30 ng/mL), IL-15 (30 ng/mL), IL-21 (50 ng/mL), IL-23 (25 ng/mL), IL-27 (1000 ng/mL), EPO (2 U/mL), TSLP (50 ng/mL) or PBS and incubated for 15 minutes. Anti-cell surface antibodies were added 15 minutes prior to cytokine stimulation; anti-CD3-BV421 (0.5 μL/well) to IL-6-treated and TSLP-treated samples and anti-CD14-BV421 (0.5 μL/well) to IFNγ-treated samples. Samples were treated with warm 1×Lyse/Fix buffer (700 μL/well) to terminate activation and further incubated at 37° C. for 20 minutes to lyse red blood cells. Plates were centrifuged at 300×g for 5 minutes, supernatant was aspirated, and cells were washed with 800 μL/well of staining buffer (D-PBS containing 0.1% FBS and 0.01% sodium azide). Washed cell pellets were resuspended in 350 μL/well of prechilled 90% methanol and incubated at 4° C. for 30 minutes. After the removal of 90% methanol, cells were washed once with staining buffer. All samples were finally suspended in 150 μL/well of the desired anti-phospho-STAT antibodies at 1:150 dilution in staining buffer; anti-pSTAT1-AF647 in IFNγ treated samples; anti-pSTAT1-AF488 and anti-pSTAT3-AF647 in IL-6-treated samples, anti-pSTAT3-AF647 in IFNα, IL-10, IL-21, IL-23 and IL-27 treated samples, anti-pSTAT4-AF647 in IL-12 treated samples, anti-pSTAT5-AF-647 in EPO, IL-15 and TSLP-treated samples. Human primary keratinocytes were cultured in DermaLife™ medium with supplement kit to expand cell population. Cell passages 2 to 5 were used in the assays. Cells were harvested at ˜80% confluence, suspended in warm DermaLife™ medium, aliquoted (90 μL/well) in 96-well, deep-well, V-bottom plates, and incubated at 37° C. for 30 minutes. Cells were then treated with compounds (0.0003 to 20 μM) for 60 minutes and followed by stimulation with IL-4 (2 ng/mL) or IL-13 (20 ng/mL) at 37° C. for 15 minutes. […]
(§2) After overnight incubation at 4° C., anti-pSTAT stained samples were transferred into 96-well polypropylene U-bottom plates and flow cytometric analysis was performed on a LSR Fortessa™ equipped with a HTS plate loader. […] Background fluorescence was defined using unstimulated cells and a gate was placed at the foot of the peak to include ˜0.5% gated population. […]

Another assay concerns IL-10 induced pSTAT3. In words: IL-10-induced pSTAT3 in human whole blood (lymphocytes). Particulars: Lymphocyte, JAK1/TYK2, read-out: IL-10 induced pSTAT3, cellular potency IC50. As to the method: as §1, §2
Another assay concerns IL-31 induced pSTAT3. Put plainly: IL-31-induced pSTAT3 in IFNγ-primed THP-1 cells. The conditions noted are these: Homo sapiens, JAK1/JAK2, read-out: IL-31 induced pSTAT3, cellular potency IC50. As to the method: THP-1 cells were maintained in RPMI 1640 medium containing 10% FBS, 50 μM 2 mercaptoethanol, 50 U/mL penicillin, 50 µg/mL streptomycin and 2 mM L-glutamine. THP 1 cells were treated with IFNγ (20 ng/mL) for 18 hours. IFNγ primed THP-1 cells were resuspended in fresh RPMI 1640 medium, treated with compounds (0.0003 to 20 μM) for 60 minutes, followed by stimulation with IL-31 (1 μg/mL) for additional 10 minutes. Cells were then fixed by 2% paraformaldehyde and permeabilized by 90% methanol. Fixed and permeabilized cells were stained with AlexaFluor647™ labeled anti-pSTAT3 antibody (1 to 150 dilution).
After overnight incubation at 4° C., anti-pSTAT stained samples were transferred into 96-well polypropylene U-bottom plates and flow cytometric analysis was performed on a LSR Fortessa™ equipped with a HTS plate loader. For human whole blood samples, lymphocyte population was gated for pSTAT histogram analysis for IFNα, IL-10, IL-12, IL-15, IL-21, IL-23, and IL-27-treated samples; CD14^+ cells for IFNγ-treated samples; CD3^+ cells for IL-6 and TSLP-treated samples; all events (entire populations) for EPO-treated samples. Entire populations of keratinocytes and THP-1 cells were gated for the IL-4, IL-13, IL-22 and IL-31 assays. Background fluorescence was defined using unstimulated cells and a gate was placed at the foot of the peak to include ˜0.5% gated population. Histogram statistical analysis was performed using FACSDiva version 8.0. Relative fluorescence unit, which measures the level of pSTAT, was calculated by multiplying the percent positive population and its mean fluorescence. Inhibition curves and half maximal inhibitory concentration (IC50) values were determined using Prism™ software (Version 8) or the Activity Base data analysis software (ID Business Solutions).

In a further assay the test system is IL-6 induced pSTATI. Put plainly: IL-6-induced pSTAT1 in human whole blood (CD3+ cells). Particulars: JAK1/JAK2, read-out: IL-6 induced pSTATI, cellular potency IC50. The procedure:
as §1, §2

The subject of another assay is IL-15 induced pSTAT5. Put plainly: IL-15-induced pSTAT5 in human whole blood (lymphocytes). Particulars: Lymphocyte, JAK1/JAK3, read-out: IL-15 induced pSTAT5, cellular potency IC50. The procedure: as §1, §2
The subject of a further assay is IL-23 induced pSTAT3. Put plainly: IL-23-induced pSTAT3 in human whole blood (lymphocytes). The conditions noted are these: Lymphocyte, JAK2/TYK2, read-out: IL-23 induced pSTAT3, cellular potency IC50. The procedure: as §1, §2
The subject of another assay is IL-22 induced pSTAT3. In words: IL-22-induced pSTAT3 in human keratinocytes. The conditions noted are these: Keratinocyte, JAK1/TYK2, read-out: IL-22 induced pSTAT3, cellular potency IC50.
A further assay concerns IFNg induced pSTATI. Put plainly: IFNγ-induced pSTAT1 in human whole blood (CD14+ cells). Particulars: JAK1/JAK2, read-out: IFNg induced pSTATI, cellular potency IC50. As to the method:
as §1, §2

The subject of another assay is IL-13 induced pSTAT6. In words: IL-13-induced pSTAT6 in human keratinocytes. The conditions noted are these: Keratinocyte, JAK1/JAK2, read-out: IL-13 induced pSTAT6, cellular potency IC50. The procedure:
(§3) Human whole blood was collected from healthy donors via vein puncture into Vacutainer collection tubes containing sodium heparin in accordance with Pfizer protocols (Protocol No. GOHW RDP-01) approved by the Shulman Institutional Review Board. Blood was warmed to 37° C. priorto use. Human whole blood was aliquoted (90 μL/well) in 96-well, deep-well, V-bottom plates and treated with compounds (5 μL/well) at different concentrations up to 60 μM (0.2% DMSO final) at 37° C. for 60 minutes. This was followed by a challenge with IFNα (5000 U/mL), IFNγ (100 ng/mL), IL-6 (50 ng/mL), IL-10 (30 ng/mL), IL-12 (30 ng/mL), IL-15 (30 ng/mL), IL-21 (50 ng/mL), IL-23 (25 ng/mL), IL-27 (1000 ng/mL), EPO (2 U/mL), TSLP (50 ng/mL) or PBS and incubated for 15 minutes. Anti-cell surface antibodies were added 15 minutes prior to cytokine stimulation; anti-CD3-BV421 (0.5 μL/well) to IL-6-treated and TSLP-treated samples and anti-CD14-BV421 (0.5 μL/well) to IFNγ-treated samples. Samples were treated with warm 1×Lyse/Fix buffer (700 μL/well) to terminate activation and further incubated at 37° C. for 20 minutes to lyse red blood cells. Plates were centrifuged at 300×g for 5 minutes, supernatant was aspirated, and cells were washed with 800 μL/well of staining buffer (D-PBS containing 0.1% FBS and 0.01% sodium azide). Washed cell pellets were resuspended in 350 μL/well of prechilled 90% methanol and incubated at 4° C. for 30 minutes. After the removal of 90% methanol, cells were washed once with staining buffer. […]
as §2

The next assay concerns IL-4 induced pSTAT6. In words: IL-4-induced pSTAT6 in human keratinocytes. The conditions noted are these: Keratinocyte, JAK1/JAK2, read-out: IL-4 induced pSTAT6, cellular potency IC50. As to the method:
as §3, §2

The subject of a further assay is IL-21 induced pSTAT3. Put plainly: IL-21-induced pSTAT3 in human whole blood (lymphocytes). The conditions noted are these: Lymphocyte, JAK1/JAK3, read-out: IL-21 induced pSTAT3, cellular potency IC50. As to the method: as §1, §2
Another assay relates to TSLP induced pSTAT5. Put plainly: TSLP-induced pSTAT5 in human whole blood (CD3+ cells). Particulars: JAK1/JAK2, read-out: TSLP induced pSTAT5, cellular potency IC50. As to the method: as §3, §2
In the next assay the test system is EPO induced pSTAT5. In words: EPO-induced pSTAT5 in human whole blood (all events). The conditions noted are these: JAK2/JAK2, read-out: EPO induced pSTAT5, cellular potency IC50. The procedure: as §1, §2

Usually IC50 stands for the concentration that inhibits the measured activity by half.

Take `CCCS(=O)(=O)N[C@H]1C[C@@H](N(C)c2ncnc3[nH]ccc23)C1` [Abrocitinib, N-((1S,3S)-3-(Methyl(7H-pyrrolo[2,3-d]pyrimidin-4-yl)amino)cyclo-butyl)propane-1-sulfonamide, reference compound]: the IC50 in the assay with IL-27 induced pSTAT3 is 0.228 µM; with IL-10 induced pSTAT3 it was 3.7 µM; in the assay on IL-31 induced pSTAT3 it was 0.04 µM; with IL-6 induced pSTATI it was 0.343 µM; in the assay with IL-15 induced pSTAT5, 0.537 µM; with IL-23 induced pSTAT3, greater than 16.5 µM. The IC50 in the assay on IL-22 induced pSTAT3 is 0.42 µM; in the assay on IFNg induced pSTATI, 1.69 µM; with IL-13 induced pSTAT6, 0.0819 µM; in the assay on IL-4 induced pSTAT6, 0.077 µM; with IL-21 induced pSTAT3, 0.516 µM; in the assay on TSLP induced pSTAT5 it was 1.02 µM. Also, the IC50 with EPO induced pSTAT5 worked out at 7.18 µM.
